Like-named read-outs stand apart in the source and are kept apart here.
Columns and labels:
Format in all cases: cell-based, human
[1] = tested on: Aβ42; test: Aβ42 in FAD1 iPS cell-derived nerve cells (primary/secondary screening, dose dependency); settings: secondary screening, FAD1 iPS cell-derived nerve cells, numerical value (Aβ change rate)
Method in brief: (§1)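 Cerebral cortex neurons were induced from FAD1 patient iPS cells by doxycycline-inducible NGN2, delivered by PiggyBac. Aβ40 and Aβ42 in the culture medium gave the Aβ42/40 ratio, with dose dependency examined in primary and secondary screens. The secondary screen also covered Aβ38, Aβ43, sAPPα and sAPPβ.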

[2] = tested on: Aβ42/40 ratio; test: Aβ42/40 ratio in FAD1 iPS cell-derived nerve cells (primary/secondary screening, dose dependency); settings: secondary screening
Method in brief: as §1

[3] = tested on: Aβ38; test: Aβ38 in FAD1 iPS cell-derived nerve cells (secondary screening); set-up: scale not given here
Description: (§2) To further study reproducibility of the candidate drugs obtained by the primary screening, secondary screening was conducted. In addition to Aβ40, Aβ42, Aβ42/40 ratio, Aβ38, Aβ43, sAPPα, sAPPβ were also studied and each numerical value was obtained.

[4] = tested on: Aβ43; test: Aβ43 in FAD1 iPS cell-derived nerve cells (secondary screening); set-up: scale not given here
Description: as §2

[5] = tested on: sAPPα; test: sAPPα in FAD1 iPS cell-derived nerve cells (secondary screening); set-up: scale not given here
Description: as §2

[6] = tested on: sAPPβ; test: sAPPβ in FAD1 iPS cell-derived nerve cells (secondary screening); set-up: sAPPβ: scale not given here
Description: as §2

[7] = secondary screening, FAD1 iPS cell-derived nerve cells

Row | SMILES | Aβ42 [1] | Ratio Aβ42/40 [2] | Aβ38 [3] | Aβ43 [4] | sAPPα [5, 7] | sAPPβ [6, 7] | sAPPα [5] | sAPPβ [6]
1 | CC(C)(Sc1cc(C(C)(C)C)c(O)c(C(C)(C)C)c1)Sc1cc(C(C)(C)C)c(O)c(C(C)(C)C)c1 [compound 96, PROBUCOL] | 0.6 | 0.7 | 0.75 | 0.65 | 1 | 1.07 |  | 
2 | FC(F)(F)COCC(F)(F)F [compound 130, FLUROTHYL] | 0.8 | 0.85 | 1.03 | 0.81 | 0.79 | 0.69 |  | 
3 | CCCCCCCCCCCCCCCC[N+](C)(C)C [compound 113, CETRIMONIUM] | 0.71 | 0.74 | 0.56 | 0.56 | 0.76 | 0.59 |  | 
4 | C=C[C@H]1CN2CC[C@H]1C[C@H]2[C@H](OC(=O)OCC)c1ccnc2ccc(OC)cc12 [compound 41, QUININE ETHYL CARBONATE] | 0.85 | 0.77 | 1.05 | 0.88 | 0.84 | 0.72 |  | 
5 | CC(C)(C)NCC(O)c1cc(Cl)c(N)c(Cl)c1 (stereo not drawn) [compound 85, CLENBUTEROL] | 0.88 | 0.85 | 1.17 | 0.94 | 0.86 | 0.84 |  | 
6 | CCN(CC)CCOc1ccc(/C(=C(\Cl)c2ccccc2)c2ccccc2)cc1 [compound 9, CLOMIPHENE] | 0.83 | 0.89 | 1.04 | 0.86 | 0.71 | 0.66 |  | 
7 | O=C(O)c1cc(=O)c2c(OCC(O)COc3cccc4oc(C(=O)O)cc(=O)c34)cccc2o1 [compound 11, CROMOLYN] | 0.88 | 0.96 | 1.04 | 0.82 | 0.89 | 0.86 |  | 
8 | CC(C)c1cccc(C(C)C)c1O [compound 87, PROPOFOL] | 0.88 | 0.91 | 0.99 | 0.88 |  |  | 0.94 | 1
9 | CC1(C)C2CC[C@@]1(C)C(=O)C2 [compound 101, CAMPHOR (1R)] | 0.95 | 1.01 | 1.08 | 0.91 | 0.92 | 0.87 |  | 
10 | CCCc1nc(C(C)(C)O)c(C(=O)OCc2oc(=O)oc2C)n1Cc1ccc(-c2ccccc2-c2nn[nH]n2)cc1 [compound 61, OLMESARTAN MEDOXOMIL] | 0.82 | 0.86 | 0.85 | 0.9 | 0.8 | 0.86 |  | 
11 | O=C1c2ccccc2C(=O)C1c1ccc(Cl)cc1 [compound 127, CHLORINDIONE] | 0.79 | 0.85 | 0.92 | 0.87 | 0.74 | 0.67 |  | 
12 | CN(C)CCN(Cc1ccc(Cl)cc1)c1ccccn1 [compound 129, CHLOROPYRAMINE] | 0.83 | 0.81 | 0.96 | 0.89 | 0.87 | 0.86 |  | 
13 | N[C@@H]1CONC1=O [compound 114, CYCLOSERINE] | 0.92 | 0.95 | 1.06 | 0.85 | 0.84 | 0.82 |  | 
14 | C=CC1=C(C(=O)O)N2C(=O)[C@@H](NC(=O)/C(=N\O)c3csc(N)n3)[C@H]2SC1 [compound 63] | 0.79 | 0.87 | 0.95 | 0.9 | 0.82 | 1.01 |  | 
15 | CN1C(=O)CCS(=O)(=O)C1c1ccc(Cl)cc1 (stereo not drawn) [compound 128, CHLORMEZANONE] | 0.86 | 0.78 | 1.05 | 0.85 | 0.85 | 0.72 |  | 
16 | COc1cc2nc(N(C)CCCNC(=O)C3CCCO3)nc(N)c2cc1OC (stereo not drawn) [compound 81, ALFLUZOSIN] | 0.96 | 0.87 | 1.22 | 1.03 | 0.9 | 0.97 |  | 
17 | CCCCC(=O)N(Cc1ccc(-c2ccccc2-c2nn[nH]n2)cc1)[C@H](C(=O)O)C(C)C [compound 48] | 0.97 | 0.9 | 1.14 | 1 | 1.14 | 1.13 |  | 
18 | O=C(CCNNC(=O)c1ccncc1)NCc1ccccc1 [compound 34, NIALAMIDE] | 0.92 | 0.87 | 1.16 | 0.97 | 0.92 | 1.13 |  | 
19 | O=C(O)CCNC(=O)c1ccccc1 [compound 32, BETAMIPRON] | 0.84 | 0.82 | 1.1 | 0.82 | 0.7 | 0.6 |  | 
20 | COc1ccc(CN2CCNCC2)c(OC)c1OC [compound 84, TRIMETAZIDINE] | 1.01 | 0.93 | 1.04 | 1.09 | 1.15 | 1.04 |  | 
21 | CN1CCN(C(c2ccccc2)c2ccccc2)CC1 [compound 12, CYCLIZINE] | 1.04 | 0.95 | 1.23 | 1.06 | 1.03 | 1.3 |  | 
22 | NCCCCCC(=O)O [compound 49, AMINOCAPROIC ACID] | 0.96 | 1 | 1.1 | 0.97 | 0.99 | 0.9 |  | 
23 | C#C[C@]1(O)CC[C@H]2[C@@H]3CCC4=Cc5oncc5C[C@]4(C)[C@H]3CC[C@@]21C [compound 102, DANAZOL] | 0.93 | 1.04 | 1.02 | 1.07 | 0.79 | 0.81 |  | 
24 | O=C(O)[C@H]1/C(=C/CO)O[C@@H]2CC(=O)N21 [compound 118, CLAVULANIC ACID] | 0.84 | 0.88 | 1.01 | 0.75 | 0.88 | 1 |  | 
25 | CCOC(=O)OC(C)OC(=O)[C@@H]1N2C(=O)[C@@H](NC(=O)[C@H](N)c3ccccc3)[C@H]2SC1(C)C (stereo partly drawn) [compound 59, BACAMPICILLIN] | 1.09 | 1.15 | 1.32 | 1.44 | 1.11 | 1.23 |  | 
26 | CC[C@H](C)C(=O)O[C@H]1C[C@@H](C)C=C2C=C[C@H](C)[C@H](CC[C@@H]3C[C@@H](O)CC(=O)O3)[C@H]21 [compound 46, LOVASTATIN] | 0.98 | 0.88 | 1.17 | 1.09 | 1.01 | 1.06 |  | 

From US11026942B2, “Agent for preventing and/or treating Alzheimer's disease” (KYOTO UNIVERSITY, priority 2015, dated 2021)
